Test results from ChEMBL document CHEMBL4418295, “Method for identifying modulators of GPCR GPR1 function” (2014).

Target: T1, Chemerin-like receptor 2 (Homo sapiens, UniProt P46091)
T1 sequence (P46091 whole entry): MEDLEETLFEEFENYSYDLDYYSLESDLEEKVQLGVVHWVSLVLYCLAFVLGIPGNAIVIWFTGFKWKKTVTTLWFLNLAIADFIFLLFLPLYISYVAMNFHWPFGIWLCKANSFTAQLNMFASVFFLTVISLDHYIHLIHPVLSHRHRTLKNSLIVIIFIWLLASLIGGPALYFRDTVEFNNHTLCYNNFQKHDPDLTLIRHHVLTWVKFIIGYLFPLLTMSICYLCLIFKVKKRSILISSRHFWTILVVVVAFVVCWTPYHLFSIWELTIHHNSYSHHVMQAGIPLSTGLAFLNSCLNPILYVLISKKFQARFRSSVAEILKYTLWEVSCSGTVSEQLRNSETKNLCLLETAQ
Assay: Agonist activity at recombinant human GPR1 expressed in CHOK1 PathHunter cells assessed as beta-arrestin 2 recruitment incubated for 90 mins by luminescence assay
Format: cell-based

EC50: 92.8 nM
Structure (SMILES): CC[C@H](C)[C@H](NC(=O)[C@H](CCC(=O)O)NC(=O)[C@@H](CO)NC(=O)[C@@H](NC(=O)[C@H](CC(C)C)NC(=O)[C@H](CC(C)C)NC(=O)[C@H](CC(C)C)NC(=O)[C@H](CC(C)C)NC(=O)[C@H](CS)NC(=O)[C@H](CO)NC(=O)[C@H](Cc1ccccc1)NC(=O)CNC(=O)[C@H](CCCNC(=N)N)NC(=O)[C@@H]1CCCN1C(=O)[C@H](C)NC(=O)[C@@H](N)CCSC)[C@@H](C)O)C(=O)N[C@@H](CC(=O)O)C(=O)N[C@@H](CC(C)C)C(=O)N1CCC[C@H]1C(=O)N[C@H](C(=O)N[C@@H](CCCCN)C(=O)N[C@@H](CCCNC(=N)N)C(=O)N[C@@H](CCCNC(=N)N)C(=O)N[C@@H](C)C(=O)O)C(C)C
